target: T1, human GnRH receptor (Homo sapiens, UniProt P30968); assay: peptide competitive human receptor binding assays (radioligand displacement); details: tested in one or more of the peptide competitive human receptor binding assays
T1 construct: expressed in transfected cells; membrane preparations
T1 sequence (P30968 1-328): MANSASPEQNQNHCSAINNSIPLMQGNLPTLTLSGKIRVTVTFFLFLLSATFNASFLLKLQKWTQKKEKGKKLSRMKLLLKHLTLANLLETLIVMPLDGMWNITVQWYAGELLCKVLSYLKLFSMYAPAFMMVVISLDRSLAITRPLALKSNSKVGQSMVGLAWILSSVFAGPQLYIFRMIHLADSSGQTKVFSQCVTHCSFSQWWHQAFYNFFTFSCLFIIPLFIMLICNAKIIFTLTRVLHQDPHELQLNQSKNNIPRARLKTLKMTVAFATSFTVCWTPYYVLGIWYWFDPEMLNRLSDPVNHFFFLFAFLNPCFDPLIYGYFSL
Protocol: HEK293 cells stably transfected with the human GnRH receptor are grown for two days after achieving confluence then are harvested by striking tissue culture flasks against a firm surface. Cells are collected by centrifugation at 1000 g for […]. Cell pellets are resuspended in 5% sucrose and homogenized using a polytron homogenizer for two 15 second homogenization steps. Cell homogenates are then centrifuged for 5 minutes at 3000 g to remove nuclei and the supernatant subsequently centrifuged for 30 minutes at 44,000 g to collect the membrane fraction. The membrane pellet is resuspended in GnRH binding buffer (10 mM HEPES, pH 7.5, 150 mM NaCl and 0.1% BSA) and aliquots immediately snap-frozen in liquid nitrogen and stored at −80° C. Protein content of the membrane suspension is determined using the Bio-Rad protein assay kit (Bio-Rad).
RBL cells stably transfected with the human GnRH receptor are grown to 80% confluency prior to harvesting. The cells are incubated at 37° C. for 10 min in 0.5 mM EDTA/PBS (Ca^++, Mg^++ free), and are dislodged from the plate by gentle rapping of the flasks. Cells are collected and pelleted by centrifugation at 1000 g for 5 minutes. Cell pellets are resuspended in buffer (DPBS supplemented with 10 mM MgCl2, 2 mM EGTA, pH=7.4), and cell lysis is performed using a pressure cell and applying N2 at a pressure of 900 psi for 30 min at 4° C. Unbroken cells and larger debris were removed by centrifugation at 1200 g for 10 min at 4° C. The cell membrane supernatant is then centrifuged at 45,000 g and the resulting membrane pellet is resuspended in assay buffer and homogenized on ice using a tissue homogenizer. Protein concentrations are determined using the Coomassie Plus Protein Reagent kit. Membranes are aliquoted and stored at −80° C. until ready for use.
Radioligand binding displacement assays using the peptide radioligands are performed in buffer containing 10 mM HEPES, 150 mM NaCl and 0.1% BSA, pH=7.5. Radioligand binding assays employing the use of [^3H]-1-(2,6-difluorobenzyl)-3-[(2R)-amino-2-phenethyl]-5-(2-fluoro-3-methoxyphenyl)-6-methyluracil (here the 3-methoxy group is tritiated) are run in buffer containing 50 mM Tris, 150 mM NaCl, 5 mM MgCl2, 0.01% saponin and 0.5 mM EDTA, pH=7.5. Radioligand displacement assays are performed by incubating radioligand ([^125I-Tyr^5, DLeu^6, NMeLeu^7, Pro^9-NEt]GnRH (0.1 nM), [His^5, ^125I-DTyr^6]GnRH (0.2 nM) (31) or [^3H]-1-(2,6-difluorobenzyl)-3-[(2R)-amino-2-phenethyl]-5-(2-fluoro-3-methoxyphenyl)-6-methyluracil (1 nM)), unlabeled competitors at concentrations ranging from 0.3 pM to 10 μM, and membranes for 2 hrs at rt. 10 to 20 μg protein/well is used from membrane preparations for human, monkey and rabbit GnRH receptor. 5 μg/well and 60 μg/well of membranes are used for rat and dog GnRH receptors, respectively. Binding assays are performed in either Millipore 96-well GF/C filtration plates (for ([^125I-Tyr^5, DLeu^6, NMeLeu^7, Pro^9-NEt]GnRH assays), or in 96 well low binding plates, which are subsequently filtered onto GF/C Unifilters. Filters are pretreated with 0.5% PEI for 30 min prior to use. Reactions are terminated by rapid vacuum filtration, and the filters are washed twice with 250 μL ice cold PBS pH=7.4 (0.01% Tween-20 is included in wash media for [His^5, ^125I-DTyr^6]GnRH and [^3H]-1-(2,6-difluorobenzyl)-3-[(2R)-amino-2-phenethyl]-5-(2-fluoro-3-methoxyphenyl)-6-methyluracil radioligands). The filters are dried, and the Millipore filters are monitored for radioactivity using a Cobra II gamma counter (Perkin Elmer Life Sciences). For assays filtered onto the GF/C Unifilter plates, 50 μL scintillation fluid is added to each filter, and radioactivity is monitored using a TopCount NXT. For iodinated radioligands, total radioligand is monitored on a gamma counter, and for the tritiated radioligand, total radioligand is monitored using a Perkin Elmer 1600TR liquid scintillation counter. […]

Row | Ki | SMILES
1 | ≤ 100 nM | Cc1cc(Cl)ncc1-c1cc(S(=O)(=O)N2CCCCc3ccccc32)ccc1Cl [Example 4-1, 1-[4-chloro-3-(6-chloro-4-methyl-pyridin-3-yl)-benzenesulfonyl]-2,3,4,5-tetrahydro-1H-1-benzazepine]
2 | ≤ 100 nM | Cc1cc(Cl)ncc1-c1cc(S(=O)(=O)N2CCCC(=O)c3ccccc32)ccc1Cl [Example 4-2]
3 | ≤ 100 nM | Cc1cc(Cl)ncc1-c1cc(S(=O)(=O)N2CCCc3ccccc32)ccc1Cl [Example 4-3]
4 | ≤ 100 nM | Cc1cc(Cl)ncc1-c1cc(S(=O)(=O)N2CCOc3ccccc32)ccc1Cl [Example 4-4]
5 | ≤ 100 nM | Cc1cc(Cl)ncc1-c1cc(S(=O)(=O)N2CCC(C)(C)c3ccccc32)ccc1Cl [Example 4-5]
6 | ≤ 100 nM | Cc1cc(Cl)c(-c2cc(S(=O)(=O)N3CCCc4ccccc43)ccc2Cl)cn1 [Example 4-8]
7 | ≤ 100 nM | Cc1cc(C(F)(F)F)ncc1-c1cc(S(=O)(=O)N2CCCCc3ccccc32)ccc1Cl [Example 4-9]
8 | ≤ 100 nM | Cc1cc(C(F)(F)F)ncc1-c1cc(S(=O)(=O)N2CCCc3ccccc32)ccc1Cl [Example 4-10]
9 | ≤ 100 nM | Cc1cc(C(F)(F)F)ncc1-c1cc(S(=O)(=O)N2CCOc3ccccc32)ccc1Cl [Example 4-11]
10 | ≤ 100 nM | N#Cc1cc(C(F)(F)F)ncc1-c1cc(S(=O)(=O)N2CCCCc3ccccc32)ccc1Cl [Example 4-13]
11 | ≤ 100 nM | Cc1cccc2c1N(S(=O)(=O)c1ccc(Cl)c(-c3cnc(C(F)(F)F)cc3C#N)c1)CCC2 [Example 4-14]
12 | ≤ 100 nM | N#Cc1cc(C(F)(F)F)ncc1-c1cc(S(=O)(=O)N2CCOc3ccccc32)ccc1Cl [Example 4-15]
13 | ≤ 100 nM | CC1(C)CCN(S(=O)(=O)c2ccc(Cl)c(-c3cnc(C(F)(F)F)cc3C#N)c2)c2ccccc21 [Example 4-16]
14 | ≤ 100 nM | N#Cc1cc(C(F)(F)F)ncc1-c1cc(S(=O)(=O)N2CCOCc3ccccc32)ccc1Cl [Example 4-17]
15 | ≤ 100 nM | N#Cc1cc2ccccc2nc1-c1cc(S(=O)(=O)N2CCCCc3ccccc32)ccc1Cl [Example 4-18]
16 | ≤ 100 nM | CC1(C)CCN(S(=O)(=O)c2ccc(Cl)c(-c3nc4ccccc4cc3C#N)c2)c2ccccc21 [Example 4-19]
17 | ≤ 100 nM | Cc1cccc2c1N(S(=O)(=O)c1ccc(Cl)c(-c3cnc(C(F)(F)F)cc3C#N)c1)CCCO2 [Example 4-20]
18 | ≤ 100 nM | Cc1cc(Cl)ncc1-c1cc(S(=O)(=O)N2CCCOc3ccccc32)ccc1Cl [Example 4-23]
19 | ≤ 100 nM | N#Cc1cc(C(F)(F)F)ncc1-c1cc(S(=O)(=O)N2CCCOc3ccccc32)ccc1Cl [Example 4-24]

Row | Ki | SMILES
20 | ≤ 100 nM | O=S(=O)(c1ccc(Cl)c(-c2cnc(Cl)cc2Cl)c1)N1CCCCc2ccccc21 [Example 5-1, 1-[4-Chloro-3-(4,6-dichloro-pyridin-3-yl)-benzenesulfonyl]-2,3,4,5-tetrahydro-1H-1-benzazepine]
21 | ≤ 100 nM | COc1ccccc1N(C)S(=O)(=O)c1ccc(Cl)c(-c2cnc(Cl)cc2Cl)c1 [Example 5-2]
22 | ≤ 100 nM | O=S(=O)(c1ccc(Cl)c(-c2cnc(Cl)cc2Cl)c1)N1CCCc2ccccc21 [Example 5-3]
23 | ≤ 100 nM | O=S(=O)(c1ccc(Cl)c(-c2cnc(Cl)cc2Cl)c1)N1CCOc2ccccc21 [Example 5-4]
24 | ≤ 100 nM | CC1(C)CCN(S(=O)(=O)c2ccc(Cl)c(-c3cnc(Cl)cc3Cl)c2)c2ccccc21 [Example 5-5]
25 | ≤ 100 nM | CC1CCc2ccccc2N1S(=O)(=O)c1ccc(Cl)c(-c2cnc(Cl)cc2Cl)c1 (stereo not drawn) [Example 5-6]
26 | ≤ 100 nM | CC(C)(C)OC(=O)CCCOc1cc(Cl)c(-c2cnc(C(F)(F)F)cc2C#N)cc1S(=O)(=O)N1CCCCc2ccccc21 [Example 6-1, 4-[5-chloro-4-(4-cyano-6-trifluoromethyl-pyridin-3-yl)-2-(2,3,4,5-tetrahydro-benzo[b]azepine-1-sulfonyl)-phenoxy]-butyric acid tert-butyl ester]
27 | ≤ 100 nM | CC(C)(C)OC(=O)COc1cc(Cl)c(-c2cnc(C(F)(F)F)cc2C#N)cc1S(=O)(=O)N1CCCCc2ccccc21 [Example 6-5]
28 | ≤ 100 nM | N#Cc1cc(C(F)(F)F)ncc1-c1cc(S(=O)(=O)N2CCCCc3ccccc32)c(OCCCC(=O)O)cc1Cl [Example 7-1, 4-[5-chloro-4-(4-cyano-6-trifluoromethyl-pyridin-3-yl)-2-(2,3,4,5-tetrahydro-benzo[b]azepine-1-sulfonyl)-phenoxy]-butyric acid]
29 | ≤ 100 nM | Cc1cc(C(F)(F)F)ncc1-c1cc(S(=O)(=O)N2CCCCc3ccccc32)c(OCCCC(=O)O)cc1Cl [Example 7-2]
30 | ≤ 100 nM | Cc1cc(C#N)ncc1-c1cc(S(=O)(=O)N2CCCCc3ccccc32)c(OCCCC(=O)O)cc1Cl [Example 7-3]
31 | ≤ 100 nM | N#Cc1cc2ccccc2nc1-c1cc(S(=O)(=O)N2CCCCc3ccccc32)c(OCCCC(=O)O)cc1Cl [Example 7-4]
32 | ≤ 100 nM | N#Cc1cc(C(F)(F)F)ncc1-c1cc(S(=O)(=O)N2CCCCc3ccccc32)c(OCC(=O)O)cc1Cl [Example 7-5]
33 | ≤ 100 nM | N#Cc1cc(C(F)(F)F)ncc1-c1cc(S(=O)(=O)N2CCCCc3ccccc32)c(O)cc1Cl [Example 8-2]
34 | ≤ 100 nM | N#Cc1cc2ccccc2nc1-c1cc(S(=O)(=O)N2CCCCc3ccccc32)c(O)cc1Cl [Example 8-3]
35 | ≤ 100 nM | Cc1cc(C#N)ncc1-c1cc(S(=O)(=O)N2CCCCc3ccccc32)c(OCCCO)cc1Cl [Example 9-1, 5-[2-chloro-4-(3-hydroxy-propoxy)-5-(2,3,4,5-tetrahydro-benzo[b]azepine-1-sulfonyl)-phenyl]-4-methyl-pyridine-2-carbonitrile]
36 | ≤ 100 nM | N#Cc1cc(C(F)(F)F)ncc1-c1cc(S(=O)(=O)N2CCCCc3ccccc32)c(OCCCO)cc1Cl [Example 9-2, 5-[2-Chloro-4-(3-hydroxy-propoxy)-5-(2,3,4,5-tetrahydro-benzo[b]azepine-1-sulfonyl)-phenyl]-2-trifluoromethyl-isonicotinonitrile]
37 | ≤ 100 nM | Cc1cc(C#N)ncc1-c1cc(S(=O)(=O)N2CCCCc3ccccc32)c(OCCC(=O)O)cc1Cl [Example 10-1, 3-[5-chloro-4-(6-cyano-4-methyl-pyridin-3-yl)-2-(2,3,4,5-tetrahydro-benzo[b]azepine-1-sulfonyl)-phenoxy]-propionic acid]
38 | ≤ 100 nM | N#Cc1cc(C(F)(F)F)ncc1-c1cc(S(=O)(=O)N2CCCCc3ccccc32)c(OCCC(=O)O)cc1Cl [Example 10-2, 3-[5-chloro-4-(4-cyano-6-trifluoromethyl-pyridin-3-yl)-2-(2,3,4,5-tetrahydro-benzo[b]azepine-1-sulfonyl)-phenoxy]-propionic acid]

Row | SMILES | Ki
39 | CC1(C)CCN(S(=O)(=O)c2cc(-c3cnc(C(F)(F)F)cc3C#N)c(Cl)cc2OCCCCO)c2ccccc21 [Example 11-1, 5-[2-chloro-5-(4,4-dimethyl-3,4-dihydro-2H-quinoline-1-sulfonyl)-4-(4-hydroxy-butoxy)-phenyl]-2-trifluoromethyl-isonicotinonitrile] | ≤ 100 nM

Source: US8507536B2, “Gonadotropin-releasing hormone receptor antagonists and methods relating thereto” (Neurocrine Biosciences, Inc., priority 2007, dated 2013)
